Consider ten substances from patent US11830582B2, “Methods of designing novel antibody mimetics for use in detecting antigens and as therapeutic agents” (UNIVERSITY OF MIAMI, priority 2018, dated 2023).

Common to all, as to format: binding
For data set [1], the system named is intact ZIKV particles. Briefly: Direct ELISA vs intact ZIKV particles. The settings on record: for LOD: LOD=SB+3×SDB, interpolated from calibration curve; for FPLR maximum / FPLR minimum: delta absorbance 450 nm; for Long-term stability: dose-response performance of the assay; for FPLR C50 / FPLR slope: four-parameter logistic fit; for FPLR Dynamic Range: optimized peptide concentration of Table 5 (0.5-20 μM; 4G2 1 μg/ml); for dynamic range of dose-response curve (orders of magnitude): in words. The protocol:
Before biotin functionalization, peptides stock solution was reduced using trialkylphosphine (TCEP) from ThermoFisher Scientific (www.thermofisher.com) and after 1 h the gel was removed using TCEP gel spin separation columns (ThermoFisher Scientific). Then, 2-fold molar excess of EZ-Link™ Maleimide-PEG2-Biotin (ThermoFisher Scientific) was added to purified peptide solution and incubated for 1 h. […] Therefore, no further separation was carried out.
(§1) To optimize all parameters of the direct ELISA protocol, Pierce 96-Well Polystyrene Plates, (ThermoFisher Scientific) were coated overnight at 4° C. with different concentrations of intact virus particles (ZIKV or DENV). The intact virus particles were diluted using 100 mM NaHCO3, pH 9.6, and aliquots of 100 μL were dispensed into each well of the plate using a multichannel pipette. This buffer pH assured a strong hydrophobic binding interaction between polystyrene and virus particles.
(§2) Intact particles both ZIKV and DENV were provided by Dr. Watkins group (University of Miami, Dep. of Pathology). The samples were controlled and counted by focus forming assay and RT-PCR, the details were reported in a previous work (Magnani et al., 2017). The Intact particles of ZIKV were inactivated using gamma irradiation. Assay biohazardous steps were carried out according to standard safety procedures.
(§3) After coating the plates overnight, the intact virus particles were removed by washing five times with the washing buffer (PBST) 10 mM PBS pH 7.4, 0.1% Tween-20, using an automated plate washer (MultiWash+, Molecular Devices, Sunnyvale, Calif.). Then, the plates were blocked with 200 μL of blocking buffers while shaking at 300 rpm at room temperature. The blocking buffers used were: Pierce™ Protein-Free (PBS) Blocking Buffer (PF), Blocker™ BLOTTO in TBS, SuperBlock™ Blocking Buffer, Blocker™ BSA (1×) in PBS. All blocking buffer were from ThermoFisher Scientific.
(§4) After 2 h the blocking buffers were removed using the same washing procedure mentioned above. 100 μL-aliquots of several dilutions of peptides biotinylated in 10 mM PBS pH 7.4 were placed in each well and incubated for 2 h while shaking at 300 rpm at room temperature. After the incubation, the unreacted peptides were removed by using the plate washer with the same settings. Then, 100 μL-aliquots of streptavidin-HRP (ThermoFisher Scientific) at a concentration of 20 ng/mL were added into each well and incubated for 30 min at room temperature without shaking. After the incubation, excess streptavidin-HRP was removed and the wells were washed with the plate washer five times using the washing buffer. Finally, 100 μL-aliquots of the Ultra TMB-ELISA Substrate Solution (ThermoFisher Scientific) were added and after 10 min the reaction was stopped by adding 100 μL aliquots of the TMB stop solution (SeraCare). The emission (450 nm) was read using a microplate reader (Clariostar Optima; BMG Labtech, Ortenberg, Germany).
The corresponding blank signals in triplicates were obtained by using all reagents without peptides. The blank signal was then subtracted to the average absorbance values for triplicate wells of each test.
The eight clamp peptides and the four mono-arm peptides selected, were tested vs intact ZIKV particles by using a direct ELISA. The peptides were biotinylated by using the maleimide-PEG2-biotin reagent that reacts with the sulfhydryl group of the cysteine efficiently and specifically by forming a stable thioether bond. The antibody 4G2 hybridoma mouse IgG2a was used as the reference and employed in combination with an anti-mouse IgG conjugated to HRP.
All analytical parameters involved in the development of ELISA were optimized by using 96-well plates coated with triplicate 10-fold serial dilutions of intact ZIKV particles.
Thus, the peptide concentrations reported in Table 5 were used to estimate the dynamic range and the LOD of the assay by using 10-fold serial dilutions of intact ZIKV particles from 10^^1 to 10^^8 copies/mL. […]
Background: ELISA stands for enzyme-linked immunosorbent assay.

Data set [2] relates to intact ZIKV particles. The data set is described as follows: Direct ELISA matrix effect in urine and serum. The note with it: urine 1:1, serum 1:10 diluted; 10^5 and 10^6 copies/mL ZIKV. As to the method:
Usually, the presence of ZIKV in affected bodies is detected in biological fluids. Therefore, the analytical sensitivity of the selected peptides was tested in two biological matrices, namely, urine and serum. The matrix effect was investigated to understand how real biological fluids could modify the binding efficiency of the peptides.
FIG. 4 depicts the ELISA data using solutions of peptides with or without the urine and serum obtained coating clear 96-well plates with 10^^5 and 10^^6 copies/mL of intact ZIKV particles. Urine and serum were 1:1 and 1:10 diluted, respectively, with a concentrated peptide PBS solution (10 mM PBS, pH 7.4) to obtain a peptide final concentration of 0.5 μM for C3 and C6, 5 μM for C7 and 20 μM for mono-arm peptides (P2 and X1).

Data set [3] concerns intact DENV particles (DENV-1, -2 and -3). Briefly: Cross-reactivity direct ELISA vs DENV serotypes. As to the method: as §1, §2, §3, §4
The cross-reactivity among Flaviviruses is a key parameter to be tested for this assay. […]

A value given as a limit tells only on which side of the number the result lay.

With “C2: clamp peptide WPHTQ (16) - bridge GPGCCGPG (32) - LRGHA (25) (WPHTQGPGCCGPGLRGHA; C1 Binds to Active Site 2; Bridge peptide; C2 Binds to Active Site 1)”, in data set [1], the LOD was 4.5 log[ZIKV], copies/mL; the FPLR maximum is on record as 0.55 ΔA; the FPLR minimum is listed as 0.05 ΔA; the Long-term stability is recorded as greater than 1 Month. In data set [1], the “FPLR C50” value is 6.2 log[ZIKV], copies/mL; the FPLR slope was determined as 25.4; the “FPLR Dynamic Range” value was 5-7 log[ZIKV], copies/mL.

Consider “C3: clamp peptide WPWIGT (18) - bridge GPGCCGPG (32) - KRNATP (26) (WPWIGTGPGCCGPGKRNATP; C3 Binds to Active Site 2; Bridge peptide; C3 Binds to Active Site 1)”, for which the “ELISA performance in urine and serum” value in data set [2] is recorded as “better performance in urine than serum”. Besides, in data set [1], the LOD is 3.5 log[ZIKV], copies/mL; the FPLR maximum was 0.67 ΔA; the FPLR minimum is reported as 0.05 ΔA; the Long-term stability was greater than 1 Month. Further, in data set [1], the “FPLR C50” value is 5.3 log[ZIKV], copies/mL; the FPLR slope turned out to be 8.7; the “dynamic range of dose-response curve (orders of magnitude)” value (shortened to “dynamic range of dose-response curve”) was “three-order of magnitude”; the “FPLR Dynamic Range” value is 4-7 log[ZIKV], copies/mL. The “signal decrease DENV vs ZIKV” value in data set [3] (all DENV serotypes, 10^5 copies/mL coating) is on record as “around 70%”.

As to “C4: clamp peptide WPWIGT (18) - bridge GPGCCGPG (32) - KTDAYS (27) (WPWIGTGPGCCGPGKTDAYS; C3 Binds to Active Site 2; Bridge peptide; C4 Binds to Active Site 1)”, in data set [1], the LOD is 5.7 log[ZIKV], copies/mL; the FPLR maximum is 0.40 ΔA; the FPLR minimum is recorded as 0.02 ΔA; the Long-term stability was greater than 1 Month. Further, in data set [1], the “FPLR C50” value was 6.3 log[ZIKV], copies/mL; the FPLR slope was 32.8; the “FPLR Dynamic Range” value is 6-7 log[ZIKV], copies/mL.

As to “C5: clamp peptide AGRRP (20) - bridge GPGCCGPG (32) - SWPGQ (24) (AGRRPGPGCCGPGSWPGQ; C5 Binds to Active Site 2; Bridge peptide; C1 Binds to Active Site 1)”, in data set [1], the LOD is 5.8 log[ZIKV], copies/mL; the FPLR maximum is 0.17 ΔA; the FPLR minimum is reported as 0.01 ΔA; the Long-term stability is given as greater than 1 Month. In addition, in data set [1], the “FPLR C50” value is 6.4 log[ZIKV], copies/mL; the FPLR slope is 25.6; the “FPLR Dynamic Range” value is 6-7 log[ZIKV], copies/mL.

As to “C6: clamp peptide AGRRP (20) - bridge GPGCCGPG (32) - LRGHA (25) (AGRRPGPGCCGPGLRGHA; C5 Binds to Active Site 2; Bridge peptide; C2 Binds to Active Site 1)”, the “ELISA performance in urine and serum” value in data set [2] is “strong decrease in the signal”. For the same substance, in data set [1], the LOD is 3.5 log[ZIKV], copies/mL; the FPLR maximum is 0.53 ΔA; the FPLR minimum is given as 0.05 ΔA; the Long-term stability is greater than 1 Month. Further, in data set [1], the “FPLR C50” value is 5.2 log[ZIKV], copies/mL; the FPLR slope worked out at 10.1; the “dynamic range of dose-response curve” value is reported as “three-order of magnitude”; the “FPLR Dynamic Range” value was 4-7 log[ZIKV], copies/mL. In addition, the “signal decrease DENV vs ZIKV” value in data set [3] (DENV-2, 10^5 copies/mL coating) was 45%. Moreover, the “signal decrease DENV vs ZIKV” value in data set [3] (DENV-3, 10^5 copies/mL coating) stood at 55%.

As to “C8: clamp peptide MDSPIK (22) - bridge GPGCCGPG (32) - KTDAYS (27) (MDSPIKGPGCCGPGKTDAYS; C7 Binds to Active Site 2; Bridge peptide; C4 Binds to Active Site 1)”, in data set [1], the LOD was 4.7 log[ZIKV], copies/mL; the FPLR maximum is 0.82 ΔA; the FPLR minimum is recorded as 0.03 ΔA; the Long-term stability was greater than 1 Month. In addition, in data set [1], the “FPLR C50” value is 6.2 log[ZIKV], copies/mL; the FPLR slope is given as 33.9; the “FPLR Dynamic Range” value is 5-7 log[ZIKV], copies/mL.

With “C-KRNATP (CKRNATP; X1) [mono-arm hexapeptide with N-terminal cysteine]”, in data set [1], the LOD was 4.8 log[ZIKV], copies/mL; the FPLR maximum is on record as 0.98 ΔA; the FPLR minimum is 0.03 ΔA; the Long-term stability is greater than 1 Month. In addition, in data set [1], the “FPLR C50” value is 6.1 log[ZIKV], copies/mL; the FPLR slope was 20.8; the “FPLR Dynamic Range” value was 5-7 log[ZIKV], copies/mL.

Turning to “C-KTDAYS (CKTDAYS; X2) [mono-arm hexapeptide with N-terminal cysteine]”, in data set [1], the LOD was 5.8 log[ZIKV], copies/mL; the FPLR maximum was 0.91 ΔA; the FPLR minimum is recorded as 0.01 ΔA; the Long-term stability is given as greater than 1 Month. Besides, in data set [1], the “FPLR C50” value was 6.1 log[ZIKV], copies/mL; the FPLR slope was determined as 27.7; the “FPLR Dynamic Range” value is 6-8 log[ZIKV], copies/mL.

Turning to “C-LRGHA (CLRGHA; P2) [mono-arm pentapeptide with N-terminal cysteine]”, in data set [1], the LOD was 4.5 log[ZIKV], copies/mL; the FPLR maximum is reported as 0.94 ΔA; the FPLR minimum is 0.04 ΔA; the Long-term stability is given as greater than 1 Month. For the same substance, in data set [1], the “FPLR C50” value is 6.2 log[ZIKV], copies/mL; the FPLR slope is on record as 19.9; the “FPLR Dynamic Range” value was 5-7 log[ZIKV], copies/mL.

Take “C-SWPGQ (CSWPGQ; P1) [mono-arm pentapeptide with N-terminal cysteine]”: in data set [1], the LOD is 6.8 log[ZIKV], copies/mL; the Long-term stability is greater than 1 Month; the “dynamic range of dose-response curve” value is on record as “one order of magnitude”; the “FPLR Dynamic Range” value was 7-8 log[ZIKV], copies/mL.
